Among the data in patent US20230272016A1, “PEPTIDES FOR IMMUNOTHERAPY” (Second Genome, Inc., priority 2020, published 2023) are mean_ES_IFN-γ values, retold here.

For the experiment, the system named is human T cells. In words: Human T cell activation assay (anti-CD3 plus peptide, cytokine secretion). Format: cell-based. The procedure: FIGS. 11 and 12 show 150 peptide variants of the SG-3-0020 1-29 aa N-terminal+middle region, derived from a combinatorial phage display library, were tested for activation potential of human T cells. […] Increase in cytokine secretion was concordant in 3 donors.
For example, PBMCs were obtained from individual human donors.
T-cell activation was also determined as described previously (see above and International Application No. PCT/US2020/012431). […] Separate N-, MID, and C-terminal fragments lose activity. The data support that both N- and middle region are minimally required for binding and activation to T cells.

[1] abbreviates: Table 11, 150 combinatorial library variants of SEQ ID NO:1.
Setting [2] is: Table 10, combinatorial library variants of SEQ ID NO:1.

Regarding “FASAAKGKTHDHWGSGRYRPPPWHDWRGS [SEQ ID NO: 244]”, under setting [1], the mean_ES_IFN-γ amounted to 0.9882. “FASAAKGKTHDHYPGGRMRPPPWHDWRFS [SEQ ID NO: 254]”: the mean_ES_IFN-γ under setting [1] worked out at 0.9426. Still for that read-out and setting: then “FASAAKGKTHDHYPSGRYRPPPWHDWRAS [SEQ ID NO: 298]”, with 0.6625. With “FASAAKGKTHDHYWSGRYRPPPWHDWRAS [SEQ ID NO: 33]”, the mean_ES_IFN-γ reads like this: under setting [2], 1.036; under setting [1], 1.036. Regarding “FASGAKGKTHDHNWGGRYRDPGWHDWRAS [SEQ ID NO: 281]”, the mean_ES_IFN-γ under setting [1] stood at 0.7548. Consider “FASGAKGKTHDHYPSGRHRPPPWHDWRAS [SEQ ID NO: 316]”, for which the mean_ES_IFN-γ under setting [1] worked out at 0.5231. Turning to “FGSAAKGKTHDHWPSGRHRDPGWHDWRFS [SEQ ID NO: 23]”, the mean_ES_IFN-γ came to 1.129 under setting [2] and 1.129 under setting [1]. Take “FGSAAKGKTHDHYWSGRMRPPPWHDWRGS [SEQ ID NO: 34]”: the mean_ES_IFN-γ was 1.028 under setting [2] and 1.028 under setting [1].

As for “FGSGAKGKTHDHWGGGRHRPPPWHDWRGS [SEQ ID NO: 6]”, the mean_ES_IFN-γ by setting is: under setting [2], 1.321; under setting [1], 1.321. As for “FGSGAKGKTHDHYPSGRMRPPPWHDWRVR [SEQ ID NO: 7]”, the mean_ES_IFN-γ by setting is: under setting [2], 1.319; under setting [1], 1.319. Take “FLSAAKGKTHDHNWGGRMRPPPWHDWRFS [SEQ ID NO: 255]”: the mean_ES_IFN-γ under setting [1] is given as 0.935. In the case of “FLSGAKGKTHDHYPSGRYRPPPWHDWRAR [SEQ ID NO: 15]”, the mean_ES_IFN-γ by setting is: under setting [2], 1.193; under setting [1], 1.193.

Take “FPSGAKTKWHDHNPSGRMRDPPWHDWRFS [SEQ ID NO: 306]”: the mean_ES_IFN-γ under setting [1] is reported as 0.6024.

On to “FPSGAKTKWHDHNPSGRMRDPPWHDWRFSa [SEQ ID NO: 273]”, for which the mean_ES_IFN-γ under setting [1] came to 0.8203. Turning to “FQSTAKGKTHDHWPSGRMRPPPWHDWRAS [SEQ ID NO: 267]”, under setting [1], the mean_ES_IFN-γ was 0.8487. As to “FSSAAKGKWHDHWPGGRYRDPPWHDWRVS [SEQ ID NO: 14]”, the mean_ES_IFN-γ under setting [2] is given as 1.215 and the mean_ES_IFN-γ under setting [1] is recorded as 1.215. In the case of “FSSAAKTKWHDHYGSGRYRPPPWHDWRFS [SEQ ID NO: 355]”, the mean_ES_IFN-γ under setting [1] is −0.4086. Regarding “FVSAAKGKTHDHYPSGRYRPPPWHDWRAR [SEQ ID NO: 25]”, the mean_ES_IFN-γ runs as follows: under setting [2], 1.088; under setting [1], 1.088.

Consider “FVSGAKGKWHDHWPSGRWRDPPWHDWRAS [SEQ ID NO: 10]”, for which the mean_ES_IFN-γ worked out at 1.26 under setting [2] and 1.26 under setting [1].

With “FVSTAKGKTHDHNWSGRMRPPPWHDWRGR [SEQ ID NO: 248]”, the mean_ES_IFN-γ under setting [1] amounted to 0.9668. For the substance “MASAAKGKTHDHYPGGRMRPPPWHDWRAS [SEQ ID NO: 252]”, the mean_ES_IFN-γ under setting [1] is 0.9483. Regarding “MASAAKGKTHDHYPSGRMRPPPWHDWRFS [SEQ ID NO: 263]”, under setting [1], the mean_ES_IFN-γ was 0.8848.

Consider “MASAAKGKWHDHNPSGRHRDPGWHDWWGS [SEQ ID NO: 288]”, for which, under setting [1], the mean_ES_IFN-γ is given as 0.7207. As for “MASAAKGKWHDHWGSGRHRPPPWHDWRVS [SEQ ID NO: 11]”, the mean_ES_IFN-γ under setting [2] was determined as 1.237 and the mean_ES_IFN-γ under setting [1] stood at 1.237. With “MASAAKTKWHDHYPSGRMRPPPWHDWRAR [SEQ ID NO: 27]”, the mean_ES_IFN-γ runs as follows: under setting [2], 1.075; under setting [1], 1.075. As to “MASGAKGKTHDHNWSGRMRPPPWHDWRGR [SEQ ID NO: 245]”, the mean_ES_IFN-γ under setting [1] is on record as 0.9801. In the case of “MASGAKGKTHDHYPGGRMRPPPWHDWRAR [SEQ ID NO: 287]”, under setting [1], the mean_ES_IFN-γ is 0.7208.

Regarding “MASGAKGKWHDHYGGGRMRDPGWHDWRFS [SEQ ID NO: 342]”, the mean_ES_IFN-γ under setting [1] was 0.2325. As for “MASTAKGKTHDHWPGGRMRPPPWHDWRGS [SEQ ID NO: 320]”, under setting [1], the mean_ES_IFN-γ amounted to 0.5063. On the same count and under the same terms, the value for “MASTAKGKTHDHYGGGRMRPPPWHDWRVR [SEQ ID NO: 314]” was 0.5458. “MGSAAKGKTHDHYPSGRMRPPPWHDWRGS [SEQ ID NO: 349]”: under setting [1], the mean_ES_IFN-γ is recorded as −0.09755. “MGSAAKGKWHDHNGSGRMRPPPWHDWRAR [SEQ ID NO: 279]”: the mean_ES_IFN-γ under setting [1] is 0.7782.

With “MGSAAKGKWHDHYGSGRMRPPPWHDWRVR [SEQ ID NO: 262]”, the mean_ES_IFN-γ under setting [1] is reported as 0.8865. On the same count and under the same terms, then “MGSAAKGKWHDHYPGGRHRDPPWHDWRAS [SEQ ID NO: 319]”, with 0.5086; and “MGSAAKTKWHDHYGGGRMRPPPWHDWRAR [SEQ ID NO: 247]”, with 0.9744.

Turning to “MGSAAKTKWHDHYPGGRMRPPPWHDWRFS [SEQ ID NO: 337]”, the mean_ES_IFN-γ under setting [1] is on record as 0.2836. As to “MGSGAKGKTHDHNWGGRHRDPGWHDWWVS [SEQ ID NO: 285]”, under setting [1], the mean_ES_IFN-γ worked out at 0.7319. For “MGSGAKGKTHDHWPSGRMRPPPWHDWRVS [SEQ ID NO: 268]”, the mean_ES_IFN-γ under setting [1] is reported as 0.8466. Consider “MGSGAKTKTHDHYPGGRYRPPPWHDWRVS [SEQ ID NO: 276]”, for which, under setting [1], the mean_ES_IFN-γ was found to be 0.8105. For the substance “MGSGAKTKWHDHWPSGRMRPPPWHDWRFS [SEQ ID NO: 284]”, the mean_ES_IFN-γ under setting [1] is 0.7374.

As to “MLSAAKGKTHDHYPSGRYRPPPWHDWRAR [SEQ ID NO: 269]”, the mean_ES_IFN-γ under setting [1] is given as 0.8464.

Take “MLSAAKTKTHDHWGSGRMRDPPWHDWRVS [SEQ ID NO: 351]”: the mean_ES_IFN-γ under setting [1] is reported as −0.1331.

With “MLSGAKGKTHDHYWGGRMRPPPWHDWRGS [SEQ ID NO: 22]”, the mean_ES_IFN-γ under setting [2] amounted to 1.134 and the mean_ES_IFN-γ under setting [1] came to 1.134.

Regarding “MLSGAKTKTHDHNPSGRMRDPPWHDWRVR [SEQ ID NO: 293]”, the mean_ES_IFN-γ under setting [1] worked out at 0.7047. “MLSTAKGKTHDHWGGGRMRPPPWHDWRFS [SEQ ID NO: 2]”: the mean_ES_IFN-γ under setting [2] is given as 1.408 and the mean_ES_IFN-γ under setting [1] is given as 1.408.

Turning to “MLSTAKGKTHDHYGGGRMRPPPWHDWRFS [SEQ ID NO: 249]”, the mean_ES_IFN-γ under setting [1] came to 0.9561.

For the substance “MLSTAKGKTHDHYWGGRMRPPPWHDWRFS [SEQ ID NO: 292]”, the mean_ES_IFN-γ under setting [1] is on record as 0.7049.

Take “MPSAAKGKTHDHNGGGRMRPPPWHDWRFS [SEQ ID NO: 311]”: under setting [1], the mean_ES_IFN-γ came to 0.5631. The same measure, in the same setting: the value for “MPSAAKGKTHDHYPSGRMRPPPWHDWRGR [SEQ ID NO: 333]” was 0.3234; that for “MPSAAKGKTHDHYWSGRMRPPPWHDWRVS [SEQ ID NO: 246]” was 0.9753. In the case of “MPSAAKGKWHDHYGSGRYRPPPWHDWRVR [SEQ ID NO: 326]”, under setting [1], the mean_ES_IFN-γ turned out to be 0.43. For “MPSAAKGKWHDHYPGGRMRDPKWHDWRFS [SEQ ID NO: 8]”, the mean_ES_IFN-γ is, setting by setting: under setting [2], 1.282; under setting [1], 1.282. As to “MPSAAKGKWHDHYPSGRMRPPPWHDWRAR [SEQ ID NO: 12]”, the mean_ES_IFN-γ is on record as 1.216 under setting [2] and 1.216 under setting [1].

Regarding “MPSAAKTKWHDHNWSGRMRPPPWHDWRAR [SEQ ID NO: 270]”, under setting [1], the mean_ES_IFN-γ was 0.8446. Take “MPSAAKTKWHDHYPGGRMRPPPWHDWRGR [SEQ ID NO: 16]”: the mean_ES_IFN-γ amounted to 1.186 under setting [2] and 1.186 under setting [1]. Take “MPSAAKTKWHDHYPSGRMRPPPWHDWRGR [SEQ ID NO: 28]”: the mean_ES_IFN-γ came out at 1.071 under setting [2] and 1.071 under setting [1]. As to “MPSGAKGKTHDHYGGGRMRPPPWHDWRFS [SEQ ID NO: 13]”, the mean_ES_IFN-γ is, setting by setting: under setting [2], 1.216; under setting [1], 1.216.

Turning to “MPSGAKGKWHDHYGGGRMRDPGWHDWRGS [SEQ ID NO: 317]”, the mean_ES_IFN-γ under setting [1] stood at 0.5191. For “MPSTAKGKWHDHNPSGRMRPPPWHDWRGR [SEQ ID NO: 277]”, under setting [1], the mean_ES_IFN-γ was found to be 0.7934. Regarding “MSSAAKGKTHDHNWSGRYRPPPWHDWRVR [SEQ ID NO: 242]”, the mean_ES_IFN-γ under setting [1] came out at 0.9993.

As for “MSSGAKGKWHDHNWGGRMRDPGWHDWWGS [SEQ ID NO: 301]”, the mean_ES_IFN-γ under setting [1] is 0.6348. For the substance “MSSGAKGKWHDHYGSGRHRPPPWHDWRVR [SEQ ID NO: 243]”, the mean_ES_IFN-γ under setting [1] is reported as 0.9926. Turning to “MSSGAKGKWHDHYPSGRMRPPPWHDWRFS [SEQ ID NO: 3]”, the mean_ES_IFN-γ reads like this: under setting [2], 1.384; under setting [1], 1.384. As for “MSSGAKTKTHDHYPSGRMRPPPWHDWRAR [SEQ ID NO: 303]”, the mean_ES_IFN-γ under setting [1] came out at 0.6184. In the case of “MVSAAKTKTHDHNGGGRMRPPPWHDWRFS [SEQ ID NO: 258]”, under setting [1], the mean_ES_IFN-γ was 0.9135. Still for that read-out and setting: the value for “MVSTAKGKTHDHYGGGRYRPPPWHDWRAR [SEQ ID NO: 266]” was 0.8498; that for “MVSTAKGKTHDHYGSGRYRPPPWHDWRGS [SEQ ID NO: 340]” was 0.276. Consider “MVSTAKGKTHDHYPSGRYRPPPWHDWRFS [SEQ ID NO: 29]”, for which the mean_ES_IFN-γ came to 1.052 under setting [2] and 1.052 under setting [1]. With “PASAAKGKTHDHWPSGRHRDPPWHDWRGS [SEQ ID NO: 353]”, under setting [1], the mean_ES_IFN-γ is reported as −0.2788. On to “PASAAKGKWHDHNPSGRMRDPPWHDWWGS [SEQ ID NO: 327]”, for which the mean_ES_IFN-γ under setting [1] is given as 0.4162. For “PASGAKGKTHDHYPSGRWRDSGWHDWRFS [SEQ ID NO: 313]”, the mean_ES_IFN-γ under setting [1] turned out to be 0.5536. Same read-out and setting: the value for “PASGAKTKWHDHNPSGRHRDPPWHDWRVS [SEQ ID NO: 328]” was 0.3967. Regarding “PLSAAKGKWHDHYWSGRMRDPPWHDWRVS [SEQ ID NO: 260]”, the mean_ES_IFN-γ under setting [1] was 0.8986. As to “PLSAAKTKTHDHNWSGRYRPPPWHDWRAR [SEQ ID NO: 282]”, the mean_ES_IFN-γ under setting [1] was 0.7514.

With “PLSAAKTKWHDHYGGGRMRPPPWHDWRFS [SEQ ID NO: 265]”, the mean_ES_IFN-γ under setting [1] is listed as 0.8534. On to “PSSAAKGKTHDHYPGGRYRDPGWHDWRGR [SEQ ID NO: 343]”, for which the mean_ES_IFN-γ under setting [1] came to 0.2141. Regarding “PSSAAKGKTHDHYPGGRYRPPPWHDWRVS [SEQ ID NO: 264]”, the mean_ES_IFN-γ under setting [1] is 0.8772.
